The source of these data is US20220089531A1, “NEW […] ACID DERIVATIVES, PHARMACEUTICALLY ACCEPTABLE SALT THEREOF, COMPOSITION THEREOF AND METHOD OF USE THEREOF” (THE GOVERNING COUNCIL OF THE UNIVERSITY OF TORONTO, priority 2018, published 2022).

“And” between values parts separate entries of the source, which are not always exact repeats. Equal entries are not always repeated. Where two headings read alike, the source gives them in different places.

Data set [1] deals with MV-4-11. As to the kind of experiment: Cell Titer-Blue cell viability assay, MV-4-11 (AML). The class given is cell-based. The note with it: Homo sapiens, MV4-11; AML cell line MV-4-11, 72 hrs exposure. As to the method: (§1) Anti-cancer efficacy of exemplary compounds of this application was assessed in vitro in different cancer cell lines. Cell viability was examined following treatment at various concentration of inhibitor (0.097656-50 μM) using a cell Titer-Blue cell viability assay. 1×10^4 cells/well were plated in 96-well assay plates in culture medium. All cells were grown in DMEM, IMDM and RPMI-1640 supplemented with 10% FBS. After 24 hrs, test compounds and vehicle controls were added to appropriate wells so the final volume was 100 μl in each well. The cells were cultured for the desired test exposure period (72 hrs) at 37° C. and 5% CO2. The assay plates were removed from 37° C. incubator and 20 μl/well of CellTiter-Blue® Reagent was added. The plates were incubated using standard cell culture conditions for 1-4 hours and the plates were shaken for 10 seconds and fluorescence recorded at 560/590 nm.
(§2) Compound I and II were tested for their efficacy against selected chronic myelogenous leukemia, acute myeloid leukemia and healthy human lung cell lines using the protocol stated above.
Background: Alamar Blue is a resazurin reagent that responds to reducing activity.

Data set [2] relates to MOLM-13. Nature of the data set: Cell Titer-Blue cell viability assay, MOLM-13 (AML). The format is cell-based. Conditions: Homo sapiens; AML cell line MOLM-13, 72 hrs exposure. As to the method:
as §1, §2

Data set [3] is described as follows: Bioavailability / PK study in CD-1 mice (IP injection). The format is in vivo. Conditions: plasma, 20 mg/kg IP. As to the method:
The study groups for PK for compound I, II and comparative experiments with AC-3-19 and JPX-0371 experiments are shown in Table 2.
All animals had free access to food and water. Dose formulation processing during dosing: The formulations will be kept stirred at room temperature for at least 15 min before dosing and during the dosing. Pharmacokinetics (PK) Schedule shown below in Table 3.
Approximately 0.03 mL blood was collected at each time point. Blood of each sample was transferred into plastic micro centrifuge tubes containing heparin-Na as anticoagulant. Collection tubes with blood samples and anticoagulant were inverted several times for proper mixing of the tube contents and then placed on wet ice prior to centrifugation for plasma. The blood samples were centrifuged at 4000 g for 5 min at 4° C. to obtain plasma. The samples were stored in a freezer at −75±15° C. prior to analysis. The study used CD-1 mice (male), n=3, at age approx. 6-8 weeks (20-30 g).
Concentrations of compounds in the plasma samples were analyzed using a LC-MS/MS method. WinNonlin (Phoenix™, version 6.1). Other similar software could have also been used for pharmacokinetic calculations. Pharmacokinetic parameters were calculated, whenever possible from the plasma concentration versus time data: IP parameters including T1/2, Cmax, Tmax, AUClast, AUCinf, MRT are calculated.

Data set [4] deals with K562. As to the kind of experiment: Cell Titer-Blue cell viability assay, K562 (CML). The format is cell-based. Conditions: Homo sapiens; CML cell line K562, 72 hrs exposure. As to the method:
as §1, §2

Data set [5] relates to NIH 3T3. As to the kind of experiment: Cell Titer-Blue cell viability assay, NIH 3T3. The format is cell-based. The note with it: Mus musculus, NIH3T3; NIH 3T3 cells, 72 hrs exposure. As to the method:
as §1

The nature of data set [6]: Intrinsic clearance in mouse hepatocyte. The format is in vitro ADME. The note with it: mouse, mouse hepatocytes, time points 0-120 minutes, read-out: In vitro T1/2 in mouse hepatocytes. On the procedure: (§3) A stock of 100 μM test compound was prepared by diluting the 10 mM test compound in DMSO with a solution of 50% acetonitrile and 50% water. In a 96-well non-coated plate, 198 μL of hepatocytes was pipetted, and the plate was placed in the incubator on an orbital shaker to allow the hepatocytes to warm for 10 minutes. To this solution was added 2 μL of the 100 μM test compound to start the reaction, and the plate was placed on an orbital shaker. At time points of 0, 15, 30, 60, 90 and 120 minutes, the aliquots were mixed with a solution of acetonitrile and internal standard (100 nM alprazolam, 200 nM labetalol, and 2 μM ketoprofen) to terminate the reaction. The reaction solution was then vortexed for 10 minutes and centrifuged at 4,000 rpm for 30 minutes at 4° C. […] of the supernatant was transferred to one new 96-well plate, centrifuged at 4,000 rpm for 30 minutes at 4° C., and 100 μL of the supernatant was transferred to a new 96-well plate ensuring the pellet was not disturbed. 100 μL of ultrapure water was added to all samples for analysis by LC-MS/MS.
(§4) The in vitro half-life (T1/2) was determined by the linear regression of the natural logarithm of the remaining percentage of the parent drug vs. incubation time curve. The slope value (k) of the curve was then substituted into the following equation to determine the in vitro half-life
(§5) The in vitro intrinsic clearance (in vitro CLint, in μL/min/10^6 cells) was determined by the following equation.
(§6) Where volume of incubation=0.2 mL and number of hepatocytes per well=0.1×10^6 cells.
(§7) Bioanalytical method: Column—Phenomenex Synergi 4μ Hydro-PR 80A (2.0×30 mm).
(§8) Mobile phase—0.1% formic acid in water (solvent A) and 0.1% formic acid in acetonitrile (solvent B). Column temperature—room temperature. Injection volume—10 μL. MS analysis—API 4000 instrument from AB Inc (Canada) with an ESI interface.

Data set [7] relates to phosphorylation of Shc, Src, Jak-1/2, Erk1/2 or Akt. Conditions: cited from earlier work.
Data set [8] has as its system non-transformed cells (NIH 3T3 cells, STAT3 null mouse embryo fibroblasts, or mouse thymus stromal cells). Conditions: cited from earlier work.
For data set [9], the system named is xenograft models of lung or breast cancer. The note with it: murine xenograft models of lung or breast cancer; cited from earlier work.
Data set [10] concerns HaCat. As to the kind of experiment: Cell Titer-Blue cell viability assay, HaCat (healthy cell line). The class given is cell-based. Conditions: Homo sapiens, 72 hrs exposure. As to the method:
as §1

The subject of data set [11] is MRC-9. As to the kind of experiment: Cell Titer-Blue cell viability assay, MRC-9 (healthy cell line). The format is cell-based. Conditions: Homo sapiens, MRC9; healthy cell line MRC-9, 72 hrs exposure. On the procedure: as §1, §2
Data set [12] deals with Mouse Hepatocyte. Nature of the data set: Intrinsic clearance in mouse hepatocyte. The format is in vitro ADME. Conditions: time points 0-120 minutes. As to the method: as §3, §4, §5, §6, §7, §8
Setting [13] is: male, CD-1, mouse, ip, 20 mg/kg, read-out: t1/2 (converted).
Setting [14] is: male, CD-1, mouse, ip, 20 mg/kg, individual animal.
Setting [15] is: male, CD-1, mouse, ip, 20 mg/kg, mean N=3.

Usually IC50 stands for the concentration at which inhibition is half-maximal. Read a high IC50 as weaker potency. On to `O=C(O)c1ccc(N(Cc2cccc(C3CCCC3)c2)C(=O)CN(Cc2c(F)c(F)c(F)c(F)c2F)S(=O)(=O)c2c(F)c(F)c(F)c(F)c2F)cc1O` [JPX-320], for which the IC50 is 1.1 µM in data set [1] and 0.8 µM in data set [2]. Also, the half-life in data set [3] (setting [13]) is 0.861 h.

Take `O=C(O)c1ccc(N(Cc2cccc(C3CCCC3)c2)C(=O)CN(Cc2c(F)c(F)c(F)c(F)c2F)S(=O)(=O)c2c(F)c(F)c(F)c(F)c2F)cc1` [JPX-303, 4-(N-(3-cyclopentylbenzyl)-2-((2,3,4,5,6-pentafluoro-N-((perfluorophenyl)methyl)phenyl)sulfonamido)acetamido)benzoic acid]: the results for the IC50 in data set [4], in data set [1] and in data set [5] were 2.6 µM, 0.21 µM and 5.19 µM, respectively. Further, in data set [3] (setting [13]), the half-life is 0.35 h.

In data set [1], `CC(C)(C)c1cc(CN(C(=O)CN(Cc2ccc(Cl)cc2)S(=O)(=O)c2c(F)c(F)c(F)c(F)c2F)c2ccc(C(=O)O)cc2)cc(C2CC2)c1` [Compound II] yielded an IC50 of 0.48 µM. Moreover, the half-life at 1 µM in [6] stood at 0.767 h.

As to BP-1-102, the “effect on phosphorylation of Shc, Src, Jak-1/2, Erk1/2 or Akt” value in [7] is on record as “little or no effect”. In addition, in data set [8], the “effect on non-transformed cells” value is given as “no effect”. Also, the “anti-tumor effect in vivo” value in data set [9] was “dramatic regression in tumor volumes”.

With `O=C(O)c1ccc(N(Cc2cccc(C3CCCC3)c2)C(=O)CN(Cc2ccc(Cl)cc2)S(=O)(=O)c2c(F)c(F)c(F)c(F)c2F)cc1` [JPX-313, 4-(2-((N-(4-chlorobenzyl)-2,3,4,5,6-pentafluorophenyl)sulfonamido)-N-(3-cyclopentylbenzyl)acetamido)benzoic acid], the IC50 was 0.93 µM in [1] and 1.1 µM in [2]. For the same molecule, in data set [3] (setting [13]), the half-life was 0.31 h.

One may read the Cmax as the highest concentration seen after dosing. As usually defined, the MRT is the average time that molecules of a dose stay in the body. Usually AUC(0-inf) stands for the area under the concentration-time curve extrapolated to infinity. Read a high AUC(0-inf) as high exposure. For orientation: AUC(0-t) means exposure summed from dosing to a finite time, without extrapolation to infinity. As a reminder, the Tmax is the time from dosing to the highest level. Regarding `CC(C)(C)c1cc(CN(C(=O)CN(Cc2ccc(Cl)cc2)S(=O)(=O)c2c(F)c(F)c(F)c(F)c2F)c2ccc(C(=O)O)c(O)c2)cc(C2CC2)c1` [Compound I], the IC50 in data set [4] was 4.1 µM; in [1], 0.56 µM; in [2] it was 1.7 to 2.5 µM; in [10], 20 µM; in [11], 30 µM. Besides, the half-life at 1 µM in data set [6] came to 1.67 h. In data set [12], the “In vitro T1/2 in mouse hepatocytes” value stood at 1.68 h. Further, the “AUC Extr” value in [3] (individual animal, 20 mg/kg) was 0.346% and 0.385% and 0.325%; in [3] (mean N=3) it was 0.352%. In addition, the AUCInf in [3] (individual animal, 20 mg/kg) was 7245 ng·h/mL and 6566 ng·h/mL. The AUClast in data set [3] (individual animal, 20 mg/kg) is 7217 ng·h/mL and 6545 ng·h/mL. In addition, the Cmax in data set [3] (individual animal, 20 mg/kg) was 3290 ng/mL and 3480 ng/mL; in [3] (male, CD-1, mouse, ip, 20 mg/kg, individual animal, read-out: Cmax), 3010 ng/mL; in data set [3] (male, CD-1, mouse, ip, 20 mg/kg, mean N=3, read-out: Cmax), 3260 ng/mL. Besides, the MRT is 1.99 h and 1.81 h in [3] (individual animal, 20 mg/kg); 1.87 h in data set [3] (male, CD-1, mouse, ip, 20 mg/kg, individual animal, read-out: MRT); 1.89 h in data set [3] (male, CD-1, mouse, ip, 20 mg/kg, mean N=3, read-out: MRT). Further, the t1/2 in data set [3] (individual animal, 20 mg/kg) was 3.91 h and 3.97 h. The AUC(0-inf) worked out at 5820 ng·h/mL in [3] (setting [14]) and 6540 ng·h/mL in [3] (setting [15]). Also, the area under the curve AUC(0-t) amounted to 5800 ng·h/mL in data set [3] (setting [14]) and 6520 ng·h/mL in data set [3] (setting [15]). Also, the half-life in [3] (male, CD-1, mouse, ip, 20 mg/kg, individual animal, read-out: t1/2 (converted)) is 3.92 h; in [3] (male, CD-1, mouse, ip, 20 mg/kg, mean N=3, read-out: t1/2 (converted)) it was 3.93 h; in data set [3] (male, CD-1, mouse, ip, 20 mg/kg, read-out: calculated T1/2 (FIG. 6) (converted)), 3.9 h. In addition, the Tmax in [3] (male, mouse, mean N=3) was 0.5 h.

For `O=C(O)c1ccc(N(Cc2cccc(C3CCCC3)c2)C(=O)CN(Cc2ccc(Cl)cc2)S(=O)(=O)c2c(F)c(F)c(F)c(F)c2F)cc1O` [JPX-062, 4-(2-((N-(4-chlorobenzyl)-2,3,4,5,6-pentafluorophenyl)sulfonamido)-N-(3-cyclopentylbenzyl)acetamido)-2-hydroxybenzoic acid], the IC50 came to 7.9 µM in [1] and 6.4 µM in data set [2]. Besides, in [3] (setting [13]), the half-life is 0.94 h.
